Data on 1 molecule can be found in paper PMC6509344, “Novel CMKLR1 Inhibitors for Application in Demyelinating Disease” (Scientific Reports, 2019).

The subject of series [1] is Pregnane X receptor (PXR). The series is described as follows: Cyp induction: PXR luciferase reporter in human hepatoma cell line. Type of series: cell-based. The settings on record: concentrations up to 50 uM. The procedure:
Pregnane X receptor (PXR) activation was used as a marker of Cyp induction. An engineered human hepatoma cell line with a PXR luciferase reporter was incubated with the indicated concentrations of α-NETA, Rifampicin (positive control), or DMSO (negative control), and luciferase activity assessed (Cyprotex/Evotec AG).
(In a reporter assay the amount or activity of a reporter protein is the signal.)

For another series, the target named is T1, Cyp2C8 (Homo sapiens, UniProt P10632).
T1 construct: tissue Cyprotex/Evotec AG; host or cells: human liver microsomes
T1 sequence (P10632 1-490): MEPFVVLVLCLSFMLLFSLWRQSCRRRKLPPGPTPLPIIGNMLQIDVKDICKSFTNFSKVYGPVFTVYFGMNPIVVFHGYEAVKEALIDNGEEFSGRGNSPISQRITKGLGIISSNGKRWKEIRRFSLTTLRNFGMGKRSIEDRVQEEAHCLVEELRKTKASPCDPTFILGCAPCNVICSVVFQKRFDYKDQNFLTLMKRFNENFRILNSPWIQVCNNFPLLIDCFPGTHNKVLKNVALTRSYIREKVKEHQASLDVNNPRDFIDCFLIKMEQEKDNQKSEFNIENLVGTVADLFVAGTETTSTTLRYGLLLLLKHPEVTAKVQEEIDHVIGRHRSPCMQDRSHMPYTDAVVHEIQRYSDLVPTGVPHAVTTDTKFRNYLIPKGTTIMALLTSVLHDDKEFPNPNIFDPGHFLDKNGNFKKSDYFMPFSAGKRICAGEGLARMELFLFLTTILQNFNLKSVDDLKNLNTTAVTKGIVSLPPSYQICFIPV
The series is described as follows: Cyp enzyme inhibition in human liver microsomes. It is filed as in vitro ADME. The following applies: 30 min pre-incubation.

For another series, the system named is Cyp2D6. More on the design: method as in PubChem BioAssay ID 1461. The settings on record: ref PubChem BioAssay ID 1461; cited from earlier work.
A further series deals with T2, Cyp2B6 (Homo sapiens, UniProt P20813).
T2 construct: tissue Cyprotex/Evotec AG; host or cells: human liver microsomes
T2 sequence (P20813 1-491): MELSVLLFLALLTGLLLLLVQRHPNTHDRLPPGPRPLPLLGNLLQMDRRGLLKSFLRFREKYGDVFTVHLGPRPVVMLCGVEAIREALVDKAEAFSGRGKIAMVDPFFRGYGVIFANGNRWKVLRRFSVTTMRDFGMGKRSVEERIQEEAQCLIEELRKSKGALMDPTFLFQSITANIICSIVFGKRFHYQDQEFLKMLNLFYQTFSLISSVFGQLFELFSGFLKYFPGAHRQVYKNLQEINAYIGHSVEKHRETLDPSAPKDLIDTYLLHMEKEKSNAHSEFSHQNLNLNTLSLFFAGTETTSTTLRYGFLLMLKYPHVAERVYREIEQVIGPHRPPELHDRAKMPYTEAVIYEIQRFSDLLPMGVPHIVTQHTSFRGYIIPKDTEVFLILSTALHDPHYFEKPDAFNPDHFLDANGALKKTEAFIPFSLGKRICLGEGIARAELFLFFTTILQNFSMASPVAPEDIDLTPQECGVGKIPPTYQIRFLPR
The series is described as follows: Cyp enzyme inhibition in human liver microsomes. It is filed as in vitro ADME. The following applies: 30 min pre-incubation. Background: Liver microsomes are a subcellular fraction often used to study metabolism.

Series [2] in a line: Repeat dosing toxicity, 14 days. The settings on record: C57BL/6, mouse, in vivo, po; repeated dosing p.o. for up to 14 days; read-out: no-observable-adverse-effect-level (NOAEL).
Method: Mouse survival was monitored and body weight was measured daily for the length of the study. On day 14 the mice were euthanized and the wet weight for the following tissues: kidney, brain, spleen, liver, heart, and lung, was recorded.
Series [3] has as its system Salmonella typhimurium (TA100). The series is described as follows: Ames test for genotoxicity (AMES-MOD ISO). The following applies: concentrations up to at least 10 uM. Background: In the Ames test, an excess of revertant colonies over the control signals mutagenicity.
Method: Ames test was completed using the AMES-MOD ISO 96 well format assay, Version 1.1 (Environmental Bio-Detection Products Inc.) according to manufacturer’s instructions. In brief, Salmonella typhimurium (TA100) bacterial strain was exposed to the indicated doses of sodium azide (positive control) or α-NETA solubilized in DMSO (1% DMSO/well, 48 wells/dose completed in triplicate). After 2 h incubation the cells were diluted and cultured in media lacking histidine but containing pH indicator to identify revertant cell growth. After 3 days of incubation at 37 °C, the number of wells containing revertant cells was counted per dose.
In the next series the test system is C57BL/6 mice with EAE. The series is described as follows: Experimental autoimmune encephalomyelitis (EAE), MOG35–55/CFA immunization. Type of series: in vivo, mouse. The protocol: C57BL/6 mice were purchased from The Jackson Laboratory. […] Animal experiments were conducted in accordance with approved Veterans Affairs, National Institutes of Health, and Institutional Animal Care and Use Committee guidelines.
CFA consisted of 5 mg/ml mTB (Mycobacterium-tuberculosis H37 Ra, BD Difco) in IFA (Incomplete Freund’s Adjuvant, Sigma). MOG35–55 was reconstituted at 2 mg/ml in PBS. Mice also received 200 ng pertussis toxin (List Biological Laboratories, Inc) by i.p. injection at the time of immunization and two days later. […] For a direct comparison to α-NETA, the DMF and compound doses were also 10 mg/kg in 10% captisol. Mice were monitored daily for clinical disease and scored (0 = normal/healthy, 1 = limp tail, 2 = hindlimb weakness, 3 = hindlimb paralysis, 4 = hindlimb and forelimb paralysis, 5 = moribund/dead).

Another series deals with Cyp enzymes. The series is described as follows: Time-dependent (mechanism-based) Cyp inhibition. It is filed as in vitro ADME, human. The following applies: not shown. The protocol: Human liver microsomes were pre-incubated with 7 concentrations (0.1–100 mM, duplicate wells) of α-NETA for 30 min.
Another series has as its target T3, hERG potassium channel (Homo sapiens, UniProt Q12809).
T3 construct: host or cells: CHO
The series is described as follows: hERG inhibition, patch-clamp with CHO-hERG transfectants. It is filed as cell-based. The following applies: hERG tail current, 0.008-25 uM. The procedure: A patch-clamp assay with single CHO-hERG cell transfectants were used to quantify potential α-NETA-dependent hERG inhibition (2–3 cells per compound concentration). […] The cell was depolarized, and the hERG tail current was measured, and IC50 determined (Cyprotex/Evotec AG).

Series [4] is described as follows: Acute single dose toxicity (LD50). The settings on record: C57BL/6, mouse, in vivo; p.o. (oral gavage) in 10% captisol, WT C57BL6 mice, 14 days monitoring.
Method: C57/BL6 mice received one treatment of α-NETA (formulated in 10% captisol, Cydex Pharmaceuticals) at the following doses: 3000, 1000, 300, 100, 30, 0 mg/kg by oral gavage (200 ul/dose, 3 mice/group). Mouse survival was monitored and body weight was measured daily for 14 days. On day 14 the mice were euthanized and the wet weight for the following tissues: kidney, brain, spleen, liver, heart, and lung, was recorded.

T3 sequence (Q12809 whole entry): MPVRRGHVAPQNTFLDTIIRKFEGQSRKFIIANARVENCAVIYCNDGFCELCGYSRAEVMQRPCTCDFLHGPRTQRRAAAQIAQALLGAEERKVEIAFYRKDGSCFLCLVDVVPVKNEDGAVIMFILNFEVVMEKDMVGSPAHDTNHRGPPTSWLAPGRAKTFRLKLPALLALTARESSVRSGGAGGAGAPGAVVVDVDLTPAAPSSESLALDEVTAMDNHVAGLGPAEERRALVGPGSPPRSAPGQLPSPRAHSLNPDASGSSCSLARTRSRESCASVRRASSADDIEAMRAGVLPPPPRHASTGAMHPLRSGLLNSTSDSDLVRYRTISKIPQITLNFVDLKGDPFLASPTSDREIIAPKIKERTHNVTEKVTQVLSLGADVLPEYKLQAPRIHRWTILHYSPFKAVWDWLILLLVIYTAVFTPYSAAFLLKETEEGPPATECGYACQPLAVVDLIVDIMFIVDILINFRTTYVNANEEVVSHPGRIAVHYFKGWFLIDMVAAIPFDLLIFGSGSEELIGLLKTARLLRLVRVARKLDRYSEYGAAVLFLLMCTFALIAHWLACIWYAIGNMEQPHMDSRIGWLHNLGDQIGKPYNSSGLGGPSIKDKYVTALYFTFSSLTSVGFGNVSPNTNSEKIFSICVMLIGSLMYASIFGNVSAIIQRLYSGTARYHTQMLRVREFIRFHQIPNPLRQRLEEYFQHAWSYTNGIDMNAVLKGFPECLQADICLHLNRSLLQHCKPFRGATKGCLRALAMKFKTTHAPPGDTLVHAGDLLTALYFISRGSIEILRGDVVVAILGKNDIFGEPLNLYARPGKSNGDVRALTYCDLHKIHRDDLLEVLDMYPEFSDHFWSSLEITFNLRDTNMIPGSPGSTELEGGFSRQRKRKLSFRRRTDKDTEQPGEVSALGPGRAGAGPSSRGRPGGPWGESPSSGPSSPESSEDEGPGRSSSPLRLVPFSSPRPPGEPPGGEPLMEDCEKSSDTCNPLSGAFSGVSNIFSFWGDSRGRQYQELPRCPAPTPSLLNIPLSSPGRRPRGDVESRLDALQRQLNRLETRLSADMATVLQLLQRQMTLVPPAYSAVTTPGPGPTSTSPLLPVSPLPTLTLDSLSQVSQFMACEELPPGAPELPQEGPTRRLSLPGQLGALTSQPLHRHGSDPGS

As usually defined, the IC50 is the point on the concentration scale where inhibition reaches its midpoint. One may read the NOAEL as the highest tested level that showed no adverse finding. One may read the LD50 as the dose expected to kill half of the subjects tested. Read a low LD50 as a more toxic substance. In the case of `C[N+](C)(C)CCC(=O)c1cccc2ccccc12.[I-]` [α-NETA, 2-(α-naphthoyl) ethyltrimethylammonium iodide], the “PXR activation (marker of Cyp induction)” value in [1] was “did not induce substantial PXR activity”. Also, the IC50 at Cyp2C8 was 1.5 µM; in the series with Cyp2D6 it was more than 10 µM; on Cyp2B6, 0.12 µM; at hERG potassium channel, 10.4 µM. Further, the NOAEL at 14 days in series [2] was not below 300 mg/kg. Also, in [3], the “mutagenesis in Ames test (histidine revertants)” value is recorded as “did not induce mutagenesis”. For the same molecule, the “day of EAE onset (mean ± SEM)” value in the series on C57BL/6 mice with EAE (Fig. 1 study, 10 mg/kg daily in 10% captisol, s.c., d29 onset assumed for 2 α-NETA mice) was 21 ± 2 days. Further, the “Day of onset (Mean ± SEM)” value in the series with C57BL/6 mice with EAE (Table 4, 10 mg/kg daily to D21, n = 8) came to 14.4 ± 0.6. The “Maximum Score (Mean ± SEM)” value with C57BL/6 mice with EAE (Table 4, 10 mg/kg daily to D21, n = 8, clinical score 0-5) is listed as 2.6 ± 0.2. In addition, the “AUC (Mean ± SEM) of clinical score” value in the series on C57BL/6 mice with EAE (Table 4, 10 mg/kg daily to D21, n = 8, mean clinical score x day) was 31.9 ± 4.0. Also, in the series with Cyp enzymes, the “time-dependent (mechanism-based) Cyp inhibition” value was “No time-dependent (mechanism-based) Cyp inhibition was detected”. The LD50 at 14 days in series [4] worked out at 873 mg/kg.
